Tests used:
[1] = target: Human immunodeficiency virus type 1 reverse transcriptase (Human immunodeficiency virus 1) (UniProt Q72547); assay: In vitro inhibitory activity of compound against human immunodeficiency virus type 1 (HIV-1) rReverse transcriptase at a concentration of 10 ug/mL.
[2] = target: T1, Human immunodeficiency virus type 1 reverse transcriptase (Human immunodeficiency virus 1, UniProt Q72547); assay: In vitro inhibitory activity of compound against human immunodeficiency virus type 1 (HIV-1) Reverse transcriptase
T-cell line = assay: In vitro cytotoxicity in CD4+ human T-cells (c8166), […]; type: functional
[3] = target: T1, Human immunodeficiency virus type 1 reverse transcriptase; assay: In vitro inhibitory activity against human immunodeficiency virus type 1 (HIV-1) reverse transcriptase (RT)
[4] = target: Human immunodeficiency virus type 1 reverse transcriptase (Human immunodeficiency virus 1) (UniProt Q72547); assay: In vitro inhibitory activity of compound against human immunodeficiency virus type 1 (HIV-1) Reverse transcriptase at a concentration of 10 ug/mL.
[5] = target: Human immunodeficiency virus type 1 reverse transcriptase (Human immunodeficiency virus 1) (UniProt Q72547); assay: In vitro inhibitory activity against human immunodeficiency virus type 1 (HIV-1) reverse transcriptase (RT) at a concentration of 10 ug/mL.

Row | IC50 [3] [µM] | inhibition [5] [%] | SMILES | further results
1 | – | – | CCN1C(=O)c2ccccc2N(C)c2nc(Cl)ccc21 | inhibition [1]: 76%; IC50 [2]: 3.3 µM
2 | 0.006 | – | Cc1cn([C@H]2C[C@H](N=[N+]=[N-])[C@@H](CO)O2)c(=O)[nH]c1=O [ZIDOVUDINE] | CC50 (T-cell line): 66 µM
3 | – | – | CCN1c2ncccc2C(=O)N(C)c2ccc(Cl)nc21 | IC50 [2]: 0.15 µM; inhibition [4]: 100%
4 | – | – | CCN1c2ncccc2C(=O)N(C)c2cc(Cl)c([N+](=O)[O-])nc21 | IC50 [2]: > 1 µM; inhibition [4]: 98%
5 | > 1 | 46 | Cc1ccc2c(n1)Nc1ccccc1C(=O)N2 | –
6 | > 1 | 99 | CCN1c2ncccc2C(=O)N(C)c2cc(Cl)cnc21 | –
7 | 3 | 94 | O=C1Nc2c(CO)ccnc2N(C2CC2)c2ncccc21 | –
8 | > 1 | 73 | CN1C(=O)c2cccnc2N(C2CCCCC2)c2ncccc21 | –
9 | 1.9 | 98 | CCN1c2ncccc2C(=O)N(C)c2c(C)ccnc21 | –
10 | 7.6 | 91 | CCN1c2ccccc2N(C)C(=O)c2cc(Cl)cnc21 | –
11 | 16 | 56 | CCOC(=O)CN1c2ccccc2N(C)C(=O)c2cccnc21 | –
12 | 15.3 | 73 | CC(=O)N1c2ncccc2C(=O)N(C)c2cccnc21 | –
13 | > 1 | 94 | C#CCN1c2ncccc2C(=O)N(C)c2cccnc21 | –
14 | > 1 | 84 | CCN1c2ccc(CN)cc2N(C)C(=O)c2cccnc21 | –
15 | > 1 | 64 | CCN1c2ccc([N+](=O)[O-])cc2N(C)C(=O)c2cc(Br)cnc21 | –
16 | 1.4 | 96 | C=CCN1C(=O)c2cccnc2Nc2ccccc21 | –
17 | > 1 | 49 | CCN1c2cc(NC(C)=O)ccc2N(C)C(=O)c2cccnc21 | –
18 | > 1 | 13 | CCOC(=O)N1c2ccccc2N(C)C(=O)c2cccnc21 | –
19 | > 1 | 18 | CCN1c2ccc(C(=O)O)cc2N(C)C(=O)c2cccnc21 | –

Row | SMILES | IC50 [3] [µM] | inhibition [5] [%] | further results
20 | CCN1c2ncccc2C(=O)N(C)c2cc(Cl)c(N)nc21 | 0.85 | 98 | –
21 | CCN1c2ccc(C)cc2N(C)C(=O)c2cccnc21 | 0.19 | 100 | –
22 | CC(C)N1c2ncccc2NC(=O)c2cccnc21 | 0.59 | 99 | –
23 | CC(=O)N1c2cc(C)c(C)cc2N(C)C(=O)c2cccnc21 | 0.42 | 96 | –
24 | CCN1c2cc(C)c(C)cc2N(C)C(=O)c2cccnc21 | 0.04 | 100 | –
25 | CCN1c2ccccc2N(C)C(=O)c2cccnc21 | 0.35 | 100 | –
26 | CCN1c2ccccc2C(=O)N(C)c2cccnc21 | 0.5 | 99 | –
27 | CCN1c2cc([N+](=O)[O-])ccc2N(C)C(=O)c2cc(Br)cnc21 | 0.89 | 95 | –
